# Where “and” joins values, the source holds several entries; their conditions need not be identical. Identical values can stand only once. Like-named read-outs stand apart in the source and are kept apart here.
# What was measured:
# [1] = pKa determination, potentiometric; details: this work, 25°C, […] KCl (footnote b)
# [2] = Charge class Q, dominant calculated charge state at pH 7.4; format: physicochemical
# [3] = In combo PAMPA-BBB model, calculated log Po in situ
# [4] = PAMPA; for Pm^7.4: pH 7.4
# [5] = cited from earlier work
# [6] = In situ brain perfusion permeability; details: efflux inhibition mrp1(−/−); from literature PS
# [7] = cited from earlier work; remark: listed apart in the source
# [8] = cited from earlier work; remark: listed apart in the source
# [9] = In situ brain perfusion, individual literature values; details: from literature PS
# Double-Sink PAMPA = details: intrinsic permeability, Type DS, Double-Sink PAMPA data scaled to the 3 μL level
# [10] = mouse, in vivo
# physchem [11] = test: physchem
# [12] = in vivo
# [13] = in vivo; cited from earlier work
# [14] = PAMPA
# physchem [15] = details: pKa
# [16] = dominant calculated concentration fraction of the drug in a charge state
smiles,measurement,setting,value
CNCCC(Oc1ccc(C(F)(F)F)cc1)c1ccccc1 (centres unmarked) [Fluoxetine],pKa,[1],9.79
CC[C@]1(O)C[C@H]2CN(CCc3c([nH]c4ccccc34)[C@@](C(=O)OC)(c3cc4c(cc3OC)N(C=O)[C@H]3[C@@](O)(C(=O)OC)[C@H](OC(C)=O)[C@]5(CC)C=CCN6CC[C@]43[C@@H]65)C2)C1 [Vincristine],Q (charge class),[2]; [16],0
same,obs–calc (log Po^in situ),[3]; efflux inhibition mdr1a(−/−),−0.1
same,obs–calc (log Po^in situ),[3]; efflux inhibition mrp1(−/−),−0.5
same,log PABL,[4],−4.62
same,log Po,[4],−4.54
same,log Ppara,[4],−7.67
same,Pm^7.4,[4],14
same,PS,[5]; efflux inhibition mrp1(−/−),1 10^−4 mLg^−1s^−1
same,log PS,[5]; efflux inhibition mrp1(−/−),−4.25
same,log Po^in situ (obs),[6],−5.95
C=C[C@H]1C[N@@]2CC[C@H]1C[C@@H]2[C@@H](O)c1ccnc2ccc(OC)cc12 [Quinidine],Q (charge class),[2]; [16],+
same,PS,"[7]; rat, in vivo",4 10^−4 mLg^−1s^−1
COc1cccc2c1C(=O)c1c(O)c3c(c(O)c1C2=O)C[C@@](O)(C(=O)CO)C[C@@H]3O[C@H]1C[C@H](N)[C@H](O)[C@H](C)O1 [Doxorubicin],Q (charge class),[2]; [16],+
same,obs–calc (log Po^in situ),[3]; efflux inhibition mdr1a(−/−),1.7
same,obs–calc (log Po^in situ),[3]; efflux inhibition mrp1(−/−),1.4
same,obs–calc (log Po^in situ),[3]; efflux inhibition verapamil,1.6
same,log PABL,[4],−4.61
same,log Po,[4],−4.23
same,log Ppara,[4],−12
same,Pm^7.4,[4],0.3
same,PS,[5]; efflux inhibition mrp1(−/−),2 10^−4 mLg^−1s^−1
same,log PS,[5]; efflux inhibition mrp1(−/−),−3.66
same,PS,[8]; efflux inhibition verapamil,4 10^−4 mLg^−1s^−1
same,log PS,[8]; efflux inhibition verapamil,−3.44
same,log Po^in situ (obs),[6],−3.35
same,log Po^in situ (obs),[9]; efflux inhibition verapamil,−3.14
O=C(O)c1ccccc1O [Salicylic Acid],Q (charge class),[2]; [16],−
same,obs–calc (log Po^in situ),[3]; no efflux inhibition,0.9
same,log Po,Double-Sink PAMPA,−3.34
CC[C@]1(O)C[C@@H]2CN(CCc3c([nH]c4ccccc34)[C@@](C(=O)OC)(c3cc4c(cc3OC)N(C)[C@H]3[C@@](O)(C(=O)OC)[C@H](OC(C)=O)[C@]5(CC)C=CCN6CC[C@]43[C@@H]65)C2)C1 [Vinblastine],Q (charge class),[2]; [16],0
same,obs–calc (log Po^in situ),[3]; efflux inhibition GF120918,0.2
same,obs–calc (log Po^in situ),[3]; efflux inhibition PSC833,0.1
same,obs–calc (log Po^in situ),[3]; efflux inhibition mdr1a(−/−),0.2 and 0.4
same,log PABL,[4],−3.25
same,log Po,[4],−4.36
same,log Ppara,[4],−5.54
same,Pm^7.4,[4],32
same,PS,[8]; efflux inhibition GF120918,6 10^−4 mLg^−1s^−1
same,log PS,[8]; efflux inhibition GF120918,−3.25
same,PS,[8]; in vivo,4 10^−4 mLg^−1s^−1
same,log PS,[8]; in vivo,−3.37
same,log Po^in situ (obs),[9]; efflux inhibition GF120918,−4.94
same,log Po^in situ (obs),[9]; efflux inhibition PSC833,−5.06
COc1ccc2c3c1O[C@H]1C[C@@H](O)C=C[C@@]31CCN(C)C2 [Galanthamine],Q (charge class),[2],+
same,obs–calc (log Po^in situ),[3],0.2
same,log PABL,[4],−4.89
same,log Po,[4],−3.41
same,log Ppara,[4],−7.73
same,Pm^7.4,[4],22
same,log Po^in situ (obs),[10],−3.21
same,pKa,physchem [11],8.62
same,log Po^in situ (obs),[12],−3.24
same,log BB (brain-to-plasma total concentration ratio),[13],0.00
same,PS,"[5]; mouse, in vivo",35 10^−4 mLg^−1s^−1
same,log PS,"[5]; mouse, in vivo",−2.46
same,PS,[8]; in vivo,33 10^−4 mLg^−1s^−1
same,log PS,[8]; in vivo,−2.48
CCC(=O)C(CC(C)N(C)C)(c1ccccc1)c1ccccc1 (centres unmarked) [Methadone],log Po,[14],−2.18
O=c1c(O)c(-c2ccc(O)c(O)c2)oc2cc(O)cc(O)c12 [Quercetin],Q (charge class),[2]; [16],0
same,obs–calc (log Po^in situ),"[3]; difference observed minus calculated, external set, no efflux inhibition",−0.4
same,obs–calc (log Po^in situ),[3]; efflux inhibition GF120918,0.7
same,obs–calc (log Po^in situ),[3]; efflux inhibition: PSC833,−0.3
same,log PABL,[4],−4.92
same,log Po,[4],−4.40
same,log Ppara,[4],−6.87
same,Pm^7.4,[4],5
same,pKa,physchem [15],9.4
same,PS,[7]; efflux inhibition: PSC833,2 10^−4 mLg^−1s^−1
same,log PS,[7]; efflux inhibition: PSC833,−3.67
same,PS,[8]; efflux inhibition GF120918,22 10^−4 mLg^−1s^−1
same,log PS,[8]; efflux inhibition GF120918,−2.65
same,log Po^in situ (obs),[9]; efflux inhibition GF120918,−4.03
O=C1C[C@@H](c2ccc(O)cc2)Oc2cc(O)cc(O)c21 [Naringenin],Q (charge class),[2]; [16],0
same,obs–calc (log Po^in situ),[3]; efflux inhibition PSC833,0.0
same,log PABL,[4],−4.00
same,log Po,[4],−3.94
same,log Ppara,[4],−6.93
same,Pm^7.4,[4],33
same,pKa,physchem [15],10.4
same,PS,[8]; in vivo,105 10^−4 mLg^−1s^−1
same,log PS,[8]; in vivo,−1.98
same,log Po^in situ (obs),[9]; efflux inhibition PSC833,−3.96
